This experiment relates to 935938-334-R-J1-PDC spheroids with HUVEC/MSC, viability. As to the kind of experiment: Anticancer human tumor 935938-334-R-J1-PDC patient-derived small intestine adenocarcinoma cell line growth inhibition [PI3K]. The following applies: for viability, T/C: stronger effect = lower value. The text has this: Combinatorial screen of targeted agents with the PI3K inhibitors inavolisib, alpelisib, duvelisib, and copanlisib in multi-cell type tumor spheroids
A high-throughput screen of multi-cell type tumor spheroids was designed to identify active combinations of targeted small molecules and PI3K pathway inhibitors. Complex spheroids include a stromal component modeled by human endothelial cells (HUVEC) and fibroblasts modeled by human mesenchymal stem cells (MSCs). The concentration ranges selected for each drug and investigational agent were based upon clinically achievable concentrations if the clinical Cmax of the agent was known.
Compounds. The drugs and investigational agents: inavolisib (NSC800729), alpelisib (NSC765974), duvelisib (NSC772469), copanlisib (NSC816437), ipatasertib (NSC767898), afuresertib (NSC778305), talazoparib (NSC767125), sapanisertib (NSC764658), selumetinib (NSC741078), tovorafenib (DAY101, NSC766906), vemurafenib (NSC761431), ravoxertinib (NSC781343), sotorasib (NSC818433), MRTX1133 (NSC 836407), abemaciclib (NSC 768073), palbociclib (NSC758247), venetoclax (NSC 766270), SY5609 (NSC837396), enzalutamide (NSC755605), and darolutamide (NSC825331), were obtained from the National Cancer Institute (NCI) Developmental Therapeutics Program Chemical Repository. The FDA-approved anticancer drug set is available from the NCI Developmental Therapeutics Program. […] The stock solutions were prepared in dimethyl sulfoxide (DMSO, Sigma-Aldrich, St. Louis, MO, cat. D2650) at 800-fold the tested concentration and stored at -70 degrees C prior to their use. All drugs and investigational agents were tested over a range starting from a high concentration at or near the clinical Cmax and decreasing in half-log increments. If the clinical Cmax for an agent had not been determined, the highest concentration tested was 10 microM.
Cell Culture. All cells were maintained in an incubator at 37 degrees C and 5% CO2 with 95% humidity. The PDC lines were cultured according to standard operating procedures established by the NCI PDMR (https://pdmr.cancer.gov/sops/default.htm). All PDCs were thawed and cultured in Matrigel-coated flasks prepared with a working solution of 1X Ham's F-12 nutrient mix, without supplementation (Invitrogen, Waltham, MA, cat. 11765054), 100 U/mL penicillin-streptomycin (Invitrogen, cat. 15140122), and 2.5% Matrigel (Corning Inc., Corning, NY, cat. 354248) for the first three passages. The 354836-022-R-J1-PDC, 475296-252-R-J1-PDC, and 997726-040-R-J2-PDC lines were cultured in 6A media, which includes advanced DMEM/F-12 (Thermo Fisher Scientific, cat. 12634028), 10 mM HEPES (Thermo Fisher Scientific, cat. 15630080), 1X GlutaMAX supplement (Thermo Fisher Scientific, cat. 35050061), 0.1 mg/mL primocin (InvivoGen, San Diego, CA, cat. ant-pm-2), 10% defined fetal bovine serum, heat inactivated (HyClone Laboratories Inc., Logan, UT, cat. SH30070.03HI), 50% L-WRN conditioned media (ATCC, cat. CRL-3276), 1.25 mM N-Acetyl-L-cysteine (Sigma-Aldrich, cat. A9165), 10 mM nicotinamide (Sigma-Aldrich, cat. N0636), 1X B-27 supplement (Thermo Fisher Scientific, cat. 17504044), 1X N-2 supplement (Thermo Fisher Scientific, cat. 17502048), and 10 microM Y-27632 dihydrochloride (Tocris Bioscience, Bristol, United Kingdom, cat. 1254). The 624824-186-R-J2-PDC line was cultured in 6C/Colon 1B media, which includes all 6A media components plus 50 ng/mL human EGF recombinant protein (Thermo Fisher Scientific, cat. PHG0311). […]

Setting [1] is: compound alone, run of 04/25/2023.

The structures appear in SMILES notation. “And” between values parts separate entries of the source, which are not always exact repeats. Equal entries are not always repeated.

This passage reports viability, T/C and IC50 results from PubChem BioAssay AID1963966 (Molecular Pharmacology Branch, DTP, NCI, 2024).
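Further: compound exposure lasted seven days before viability was read.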
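Wherever viability, T/C is given: percent of vehicle DMSO treated spheroid viability so 100% = untreated.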

As to `C#Cc1c(F)ccc2cc(O)cc(-c3ncc4c(N5CC6CCC(C5)N6)nc(OCC56CCCN5CC(F)C6)nc4c3F)c12` (stereo not given), the viability, T/C (compound 3.16 µM) was 52.5% [middle of 4 runs] and the viability, T/C (compound 10 µM) is 43.6% [middle of 4 runs]. The IC50 (curve of compound) is 4.79 µM [middle of 4 runs].

As for `C=CC(=O)N1CCN(c2nc(=O)n(-c3c(C)ccnc3C(C)C)c3nc(-c4c(O)cccc4F)c(F)cc23)C(C)C1` (stereo not given), the viability, T/C runs as follows: (compound 0.1 µM) 95.8% [middle of 4 runs]; (compound 1 µM) 111% [middle of 4 runs]; (compound 10 µM) 92.7% [middle of 4 runs]. Further, the concentration for half-maximal inhibition (IC50) (curve of compound) is > 10000 nM.

For the compound `CC(=O)c1c(C)c2cnc(Nc3ccc(N4CCNCC4)cn3)nc2n(C2CCCC2)c1=O`, the viability, T/C was 93.6% [middle of 4 runs] (compound 0.001 µM), 89.5% [middle of 4 runs] (compound 0.00316 µM), 87.7% [middle of 4 runs] (compound 0.01 µM) and 92.3% [middle of 4 runs] (compound 0.0316 µM). Further, the 50% inhibitory concentration (IC50) (curve of compound) was > 100 nM and 56.6 nM.

In the case of `CC(C)NCC(C(=O)N1CCN(c2ncnc3c2C(C)CC3O)CC1)c1ccc(Cl)cc1` (stereo not given), the viability, T/C by setting is: (compound 0.1 µM) 85.6% [middle of 4 runs]; (compound 0.316 µM) 86.1% [middle of 4 runs]; (compound 1 µM) 74.3% [middle of 4 runs]. Moreover, the IC50 (curve of compound) was > 10000 nM and 1870 nM and 5860 nM.

`CC(C)n1nc(-c2ccc3oc(N)nc3c2)c2c(N)ncnc21`: the viability, T/C (compound 0.000316 µM) was 94.6% [middle of 4 runs]; the viability, T/C (compound 0.001 µM) was 105% [middle of 4 runs]; the viability, T/C (compound 0.00316 µM) is 106% [middle of 4 runs]; the viability, T/C (compound 0.0316 µM) was 79.1% [middle of 4 runs]; the viability, T/C (compound 0.1 µM) is 52.8% [middle of 4 runs]. Also, the IC50 (curve of compound) is > 100 nM and 90.5 nM.

Turning to `CC(Cn1ccc(-c2ccc(C#N)c(Cl)c2)n1)NC(=O)c1cc(C(C)O)[nH]n1` (stereo not given), the viability, T/C reads like this: (compound 0.0316 µM) 90.6% [middle of 4 runs]; (compound 0.316 µM) 101% [middle of 4 runs]. For the same compound, where the note is “curve of compound”, the IC50 is > 10000 nM.

For the compound `CC(Nc1ccc2c(c1)OCCn1cc(N3C(=O)OCC3C(F)F)nc1-2)C(N)=O` (stereo not given), the viability, T/C (compound 0.0316 µM) is 91% [middle of 8 runs]. In addition, the concentration for half-maximal inhibition (IC50) (compound alone, run of 04/24/2023) was > 1000 nM.

On to `CC(Nc1ncnc2nc[nH]c12)c1cc2cccc(Cl)c2c(=O)n1-c1ccccc1` (stereo not given), for which the viability, T/C reads like this: (compound 0.0316 µM) 99% [middle of 8 runs]; (compound 10 µM) 80.4% [middle of 8 runs]. Under setting [1], the 50% inhibitory concentration (IC50) was > 10000 nM.

With `CC1(C)CCC(CN2CCN(c3ccc(C(=O)NS(=O)(=O)c4ccc(NCC5CCOCC5)c([N+](=O)[O-])c4)c(Oc4cnc5[nH]ccc5c4)c3)CC2)=C(c2ccc(Cl)cc2)C1`, the viability, T/C (compound 0.0316 µM) is 98.9% [middle of 4 runs]; the viability, T/C (compound 0.1 µM) was 88.2% [middle of 4 runs]; the viability, T/C (compound 3.16 µM) is 93.3% [middle of 4 runs].

As for `CC1(C)CCC(Nc2ncc(C(F)(F)F)c(-c3c[nH]c4c(P(C)(C)=O)c(C#N)ccc34)n2)CN1` (stereo not given), the viability, T/C is 43.3% [middle of 4 runs] (compound 0.0316 µM); 39.1% [middle of 4 runs] (compound 0.1 µM); 34.6% [middle of 4 runs] (compound 0.316 µM); 38.5% and 38.1% and 35.8% (2×) (compound 1 µM); 35.1% [middle of 4 runs] (compound 3.16 µM); 7.76% [middle of 4 runs] (compound 10 µM). The half-inhibitory concentration (IC50) (curve of compound) was < 31.6 nM.

Turning to `CCCS(=O)(=O)Nc1ccc(F)c(C(=O)c2c[nH]c3ncc(-c4ccc(Cl)cc4)cc23)c1F`, the viability, T/C (compound 0.0316 µM) was 98.8% [middle of 4 runs]; the viability, T/C (compound 0.1 µM) was 111% [middle of 4 runs]; the viability, T/C (compound 0.316 µM) is 108% [middle of 4 runs]; the viability, T/C (compound 3.16 µM) is 110% [middle of 4 runs]; the viability, T/C (compound 10 µM) was 31% [middle of 4 runs]. Moreover, the IC50 (curve of compound) was 7.38 µM [middle of 4 runs].

Take `CCN1CCN(Cc2ccc(Nc3ncc(F)c(-c4cc(F)c5nc(C)n(C(C)C)c5c4)n3)nc2)CC1`: the viability, T/C is 89.4% [middle of 4 runs] (compound 0.01 µM) and 49.4% [middle of 4 runs] (compound 0.316 µM). Also, for the setting “curve of compound”, the half-maximal inhibitory concentration (IC50) was 269 nM [middle of 4 runs].

`CNC(=O)c1ccc(N2C(=S)N(c3ccc(C#N)c(C(F)(F)F)c3)C(=O)C2(C)C)cc1F`: the viability, T/C reads like this: (compound 0.0316 µM) 95.8% [middle of 4 runs]; (compound 0.1 µM) 97.6% [middle of 4 runs]; (compound 0.316 µM) 96.2% [middle of 4 runs]; (compound 3.16 µM) 101% [middle of 4 runs]; (compound 10 µM) 97.4% [middle of 4 runs]. Moreover, the half-maximal inhibitory concentration (IC50) (curve of compound) was > 10000 nM.

As to `COc1c(OCCCN2CCOCC2)ccc2c3n(c(=NC(=O)c4cnc(N)nc4)nc12)CCN3`, the viability, T/C (compound 0.00316 µM) is 87.7% [middle of 8 runs]; the viability, T/C (compound 0.01 µM) is 93.9% [middle of 8 runs]; the viability, T/C (compound 0.0316 µM) is 82.8% [middle of 8 runs]; the viability, T/C (compound 0.1 µM) is 52.5% [middle of 8 runs]; the viability, T/C (compound 0.316 µM) is 38.6% [middle of 8 runs]; the viability, T/C (compound 1 µM) is 39% [middle of 8 runs]. Besides, the IC50 under setting [1] was 120 nM [middle of 8 runs].

On to `C[C@@H](NC(=O)c1ncnc(N)c1Cl)c1ncc(C(=O)Nc2cc(C(F)(F)F)c(Cl)cn2)s1`, for which the viability, T/C by setting is: (compound 0.0316 µM) 109% [middle of 4 runs]; (compound 10 µM) 83.3% [middle of 4 runs]. Besides, the half-inhibitory concentration (IC50) (curve of compound) was > 10000 nM.

Turning to `Cc1nc(NC(=O)N2CCCC2C(N)=O)sc1-c1ccnc(C(C)(C)C(F)(F)F)c1` (stereo not given), the viability, T/C was 72.2% [middle of 8 runs] (compound 1 µM) and 48.2% [middle of 8 runs] (compound 10 µM).

Take `Cn1cnc2c(F)c(Nc3ccc(Br)cc3Cl)c(C(=O)NOCCO)cc21`: the viability, T/C was 59% [middle of 4 runs] (compound 0.03 µM); 48.3% [middle of 4 runs] (compound 0.0949 µM); 33.4% [middle of 4 runs] (compound 0.3 µM); 27.6% [middle of 4 runs] (compound 0.949 µM); 20.4% [middle of 4 runs] (compound 3 µM). Besides, the IC50 (curve of compound) was 55.5 nM [middle of 4 runs].

Take `Cn1ncc(Cl)c1-c1cc(C(=O)NC(CN)Cc2cccc(F)c2)sc1Cl` (stereo not given): the viability, T/C is 84.4% [middle of 4 runs] (compound 0.1 µM), 71.1% [middle of 4 runs] (compound 0.316 µM), 60.5% [middle of 4 runs] (compound 1 µM) and 49.1% [middle of 4 runs] (compound 3.16 µM). In addition, the IC50 (curve of compound) was > 10000 nM and 1850 nM.

On to `Cn1nccc1Nc1nccc(-c2ccn(C(CO)c3ccc(Cl)c(F)c3)c(=O)c2)n1` (stereo not given), for which the viability, T/C by setting is: (compound 0.0316 µM) 101% [middle of 4 runs]; (compound 0.316 µM) 68.3% [middle of 4 runs]; (compound 1 µM) 52.5% [middle of 4 runs]; (compound 3.16 µM) 43.4% [middle of 4 runs]; (compound 10 µM) 37% [middle of 4 runs]. Also, the half-inhibitory concentration (IC50) (curve of compound) is 1.06 µM [middle of 4 runs].

As for `Cn1ncnc1[C@H]1c2n[nH]c(=O)c3cc(F)cc(c23)N[C@@H]1c1ccc(F)cc1`, the viability, T/C (compound 0.000316 µM) was 91.7% [middle of 4 runs]; the viability, T/C (compound 0.001 µM) was 113% and 106% (2×) and 109%; the viability, T/C (compound 0.01 µM) is 101% [middle of 4 runs]; the viability, T/C (compound 0.0316 µM) was 94.7% [middle of 4 runs]; the viability, T/C (compound 0.1 µM) is 97.3% [middle of 4 runs]. Further, the half-inhibitory concentration (IC50) (curve of compound) was > 100 nM.

For orientation: viability, T/C means the ratio of treated to control. One may read the IC50 as the concentration that inhibits the measured activity by half.
